The numbers were not newly measured in patent US12472158B2, “Methods of treating trigeminal nerve pain” (Vanderbilt University, priority 2019, dated 2025), which cites them from elsewhere.

Data set [1] relates to contraction of the nictitating membrane in cats. Particulars: i.v., dose giving 50% reduction of the nictitating membrane contraction.
The next data set has as its system goat model. Particulars: for duration of antinociceptive effect: intrathecal.
The test system of the next data set is subarachnoid space. Particulars: 75 mcg in 15 μl saline, intrathecal route.
A further data set concerns the target T1, α-2A adrenergic receptor (Homo sapiens, UniProt P08913).
T1 sequence (P08913 1-465): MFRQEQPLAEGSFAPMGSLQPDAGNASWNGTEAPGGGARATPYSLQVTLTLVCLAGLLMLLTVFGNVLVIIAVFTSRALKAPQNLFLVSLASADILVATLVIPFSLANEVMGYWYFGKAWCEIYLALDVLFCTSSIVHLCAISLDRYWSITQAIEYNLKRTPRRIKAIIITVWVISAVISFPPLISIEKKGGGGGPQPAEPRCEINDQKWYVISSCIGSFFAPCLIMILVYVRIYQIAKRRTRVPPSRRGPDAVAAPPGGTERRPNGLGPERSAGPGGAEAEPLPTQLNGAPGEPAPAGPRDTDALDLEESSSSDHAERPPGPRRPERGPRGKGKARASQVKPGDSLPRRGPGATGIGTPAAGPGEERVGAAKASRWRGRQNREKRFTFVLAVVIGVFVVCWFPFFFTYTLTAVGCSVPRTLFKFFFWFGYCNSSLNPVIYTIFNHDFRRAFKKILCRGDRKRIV
Particulars: α-2A vs α-2B and α-2C.

For data set [2] the following is noted: among the alpha-2 agonists.
The conditions of data set [3]: lidocaine alone (active control group); medical literature and expert opinion.

In the case of `Cc1cccc(C)c1CC(=O)NC(=N)N` [2,6-dimethylphenyl-acetyl-guanidine], in data set [1], the “Reduction of the neck sympathicus stimulus ED50” value is 1.0 mg/kg.

Regarding `Clc1cccc(Cl)c1N=C1NCCN1` [clonidine], the “time for anti-nociceptive effect to decline to baseline” value with rat model (rat model, injection 50 mcg) is not above 4 h. Moreover, in the data set with goat model, the “duration of antinociceptive effect” value is on record as 5 h.

Regarding `Cl.N=C(N)NC(=O)Cc1c(Cl)cccc1Cl` [guanfacine, N-amidino-2-(2,6-dichlorophenyl) acetamide], the “Reduction of the neck sympathicus stimulus ED50” value in data set [1] is 0.3 mg/kg. Further, the “toxicity in the subarachnoid space” value in the data set on subarachnoid space is “nontoxic”. The elimination half-life (in vivo) is approximately 17 h. Moreover, the oral bioavailability entry (oral) is “around 80%”. In addition, the renal excretion (share of elimination) is approximately 50%. The “affinity for α-2A adrenergic receptor compared to α-2B and α-2C adrenergic receptor” value on α-2A adrenergic receptor is 15- to 20 fold. For the same molecule, in the data set on rat model (compared to clonidine), the “rate of elimination from spinal cord tissue” value is recorded as “lower rate of elimination”. Besides, the “duration of anti-nociceptive effect” value in the data set on rat model (rat model, intrathecal, both 25 mcg and 50 mcg) is recorded as “greater than 18 h”. Moreover, the rate of sedation result in data set [2] is reported as “lowest rate of sedation”. Moreover, the “elimination from spinal cord tissue” value with goat model (compared with clonidine) is given as “slower elimination”. In addition, the “duration of antinociceptive effect” value in the data set with goat model was 8 h.

Regarding `CCN(CC)CC(=O)Nc1c(C)cccc1C` [lidocaine], the “mean duration of pain relief” value in data set [3] is listed as “approximately 140 minutes”.
